Assay results from patent US6395467B1 (priority 1998, dated 2002).

Legend:
[1] = tested on: rabbit renal cortical slices; test: Toxicity of cryoprotectant solutions to rabbit renal cortical slices (K/Na ratio after exposure, washout and 90 min at 25° C.); type: cell-based
Description: FIGS. 1 and 2 display a reanalysis (performed in early July of 1998) of public information (Fahy, Levy, and Ali, Cryobiology 24: 196213, 1987) on the toxicity of several vitrification solutions of known composition. These vitrification solutions will vitrify at 1,000 atmospheres and contain either 6% polyvinyl pyrrolidone of relative molecular mass 40 kDa [PVP K30] or 6% polyethylene glycol [PEG 8000]. The data set is advantageous because all solutions analyzed are vitrifiable, the data set has low standard errors, and toxicity was convincingly dissociated from osmotic factors (see Fahy, Levy, and Ali, 1987, for discussion). In this example, viability was defined by the ratio of primarily intracellular potassium to intracellular sodium (K/Na ratio) after cryoprotectant washout and active metabolism for 90 min at the optimum temperature of 25° C. The test system was rabbit renal cortical slices.
[…] Each step is 20 min except for 1X step, which is 40 min. All steps done at 0° C.

[2] = Glass-forming tendency: concentration needed to vitrify (Cv), Q and qv*; type: physicochemical; settings: for Moles of water/mole of CPA (10/Q): pure CPA at Cv; for qv* (Moles of water/mole of polar groups at Cv): pure CPA, Table 1
Description: The qv* method for identifying useful cryoprotectant solutions based on this concentration scale is: to select at least one cryoprotectant whose qv* is below 2.0, include it in a mixture with other cryoprotectants, determine the Cv of the resulting mixture in the normal way (see, for example, Fahy et al, Cryobiology 21: 407-426, 1984), calculate q* at Cv (qv*) (note: the number of moles of water can be readily determined from the weight of a given volume of solution minus the number of grams of all solutes, i.e., from the number of grams of water per unit volume or per unit weight), compare the resulting qv* value to the qv* values of alternative cryoprotectant solutions, and selecting lower qv* value solutions in general preference to higher qv* solutions. qv* values can be estimated adequately from published Q values by estimating that the densities of all solution components as pure substances are unchanged by being in solution with other substances (the validity of a similar approach in deriving Q from % w/v concentrations is discussed in Fahy, in: Low Temperature Biotechnology: Emerging Applications and Engineering Contributions, J.J. McGrath and K. R. Diller, eds, ASME, 1988, pp. 113146.)
“Cv” is the concentration needed to vitrify 5-10 ml of solution at a cooling rate of about 10° C./min.
“qv*=[(#moles of water)/(mole]/[(# polar groups)/(mole cryoprotectant)] or
qv*=(#moles of water per unit volume or per unit mass of solution)/(# moles of polar groups on penetrating cryoprotectants per unit volume or unit mass of solution) at Cv”.

[3] = cited from earlier work; for Q (moles of CPA per 10 moles of water): pure CPA at Cv
rabbit kidney slices = test: Freezing of rabbit kidney slices to −130° C., K/Na ratio after freezing and thawing; type: cell-based; settings: 30% w/v cryoprotectant, frozen to −130° C.
Protocol: A recent freezing experiment compared freezing of rabbit kidney slices to −130° C. in the presence of either 30% w/v DMSO or 30% w/v Veg solutes. The K/Na ratio after freezing and thawing in DMSO was 2.46+/−0.30, whereas the K/Na ratio after freezing and thawing in 30% w/v Veg solutes was 3.10+/−0.07 (p<0.05).

rat hepatocytes = test: Rat hepatocytes in suspension, trypan blue dye exclusion after cryoprotectant exposure or freezing to −140° C.; type: cell-based; settings: 10% v/v
Protocol: A recent freezing experiment compared freezing of rat hepatocytes in suspension to −140° C. in the presence of either 10% v/v DMSO or 10% v/v Veg solutes. Relative to the initial viability, 98% of the Veg-treated, non-frozen hepatocytes were able to exclude trypan blue dye, whereas only 70% of the DMSO-treated, non-frozen hepatocytes retained their dye exclusion capability after addition and removal of DMSO alone. After freezing and thawing, 65% of the initial number of freshly isolated hepatocytes remained capable of excluding trypan blue dye, whereas only 60% of frozen-thawed hepatocytes retained this ability when frozen with DMSO.

Human sperm = Human sperm freezing and thawing, motility; type: cell-based; settings: 2 M, cryoprotectant not removed
Protocol: Human sperm was exposed to 2 M Veg solutes or 2 M glycerol near 0° C. using gradual addition methods, then frozen, thawed, and videotaped without removing the cryoprotectant.

Structure (SMILES)	Moles of water/mole of CPA (10/Q) [2]	qv* (Moles of water/mole of polar groups at Cv) [2]	Q (moles of CPA per 10 moles of water) [3]	also measured
OCCO [Ethylene glycol]	3.0	1.4	3.3 moles of CPA per 10 moles of water	recovery (viability, FIG. 3) ([1]; at Cv, EuroCollins vehicle): less than 50%; concentrations not overtly harmful ([1]; in D(1)F-EG mixtures): ≤ 30 % w/v
O=C(CO)CO [1,3-dihydroxyacetone]	5	1.7		
NC=O [formamide]				maximum concentration associated with minimal injury ([1]; in D(1)F-EG mixtures, 57-58% w/v total): about 14%; vitrification of aqueous solutions ([3]; agent alone): do not vitrify
CC(=O)CO [Acetol, hydroxyacetone]	2.8	1.4	3.6 moles of CPA per 10 moles of water	
C[S+](C)[O-] [DMSO, dimethyl sulfoxide]				K/Na ratio after freezing and thawing (rabbit kidney slices): 2.46+/−0.30; hepatocytes capable of excluding trypan blue dye, of the initial number of freshly isolated hepatocytes (rat hepatocytes; after freezing to −140° C. and thawing): 60%; hepatocytes able to exclude trypan blue dye, relative to the initial viability (rat hepatocytes; non-frozen, after addition and removal): 70%
CC(O)CO (centres unmarked) [1,2-propanediol]				qv* ([2]; pure agent, b117): about 2.6
OCC(O)CO [glycerol]				sperm motility after freezing and thawing (Human sperm): largely quiescent upon thawing
OCCCO [1,3-propanediol]	3.2	1.6	3.1 moles of CPA per 10 moles of water	
CNC=O [N-Methyl-Formamide]	2.6	1.3	3.9 moles of CPA per 10 moles of water	
CC(N)=O [Acetamide]	2.4	1.2	4.1 moles of CPA per 10 moles of water	
